In US20250288583A1, “Treatment of Mucus Hypersecretion” (priority 2024, published 2025):

What was measured:
[1] = human volunteers; cited from earlier work
[2] = see Table 8, Wei U.S. Pat. No. 8,258,320; cited from earlier work
ostiomeatal complex = assay: Case study 6: WS-12 nebulization for dry mouth of obstructed breathing; format: in vivo, human
Source text: As hypersecretion of mucus was not the principal event, it was decided that a long-acting p-menthanecarboxamide, WS-12, might work well for the dry mouth. WS-12 was first discovered by the applicant to be a potent TRPM8 receptor agonist (Reynolds and Polakis, U.S. Pat. No. 7,893,072), and they supplied this reagent for testing and publications [see Bödding et al. (Cell Calcium. 42:618-28, 2007), and Sherkheli (J. Pharm. Pharmaceu. Sci. 13:242-53, 2010)]. WS-12 has weak cooling effects on the skin. WS-12 was later approved as a food additive (FEMA) for comestibles such as chewing gum. WS-12 is available online for about $USD 15 per 100 g. WS-12 was prepared at 10 mg/ml in 1% ethanol and 2% polysorbate 80 suspensions for a 5-see nebulization using the NasoNeb® apparatus in a volunteer subject and administered once before sleep.
The subject now uses the WS-12 on an occasional as-needed basis. The nasal polyps are still present upon endoscopic examination. The WS-12 chemical structure is ideal for use in obstructed breathing because it has an aryl moiety that increases lipophilicity (higher octanol-water partition coefficient). Lipophilicity increases retention in the nasal mucosa; thus, its action is long-lasting. […] Its actions are more gentle, with a mild coolness on the nasal surfaces. […]

[3] = test system: goblet cells of human nasal epithelium; settings: Liu et al., 2017; cited from earlier work
nasal cavity = assay: Nebulizer screening of TRPM8 agonists for sensations in the nasal cavity; format: in vivo, human; settings: NasoNeb nebulizer
Protocol: Formulations for nebulization with NasoNeb® used a standard recipe of (Table 8): 1% of the active ingredient (1 to 10 mg/mL), 2% Tween 80 (Polysorbate 80), 1 to 5% ethanol, and made up to 100% with water. The mixture is centrifuged in a FlackTek, Inc., Speedmixer for at least 10 min at 3000 rpm. The Speedmixer spins the sample in 3 dimensions. The result is a white homogeneous liquid suspension with some of the solids now dissolved. For dosing, ˜2 to 3 mL is loaded into the canister of the nebulizer. The nebulizer nozzle tip is placed in the nostril and activated by pressing a button for 3 to 5 sec using a clock timer. […] For D-Ala-OiPr a 5-sec activation will deliver 2*0.73 mL*2 mg/ml, or a total dose of 3 mg per nose. The nasal cavity is relatively tolerant to exogenous agents with irritant properties, as many rinses are used for rhinitis and sinusitis. For some p-menthanecarboxamide analogs, a 2% (20 mg/mL) solution is possible and contemplated. An ideal agent reproduces a comfortable cooling or sensations of negative heat flux in the nasal cavity. […] Heat flux refers to the rate of heat transfer per unit area. The sinonasal cavity mucosa differs from philtrum skin and ocular margins in histology, so the choice of the right molecule must be made by experiment. The TRPM8 agonists were chosen for screening using a nebulizer for delivery. The NasoNeb system is powerful and effective for the OMC (FIG. 3). The delivery time per nostril in three to five seconds. […] These parameters were estimated in the initial trials: • Onset and offset of cooling sensations in the nasal cavity. • The intensity and quality of the cooling sensations in the nasal cavity. • Presence of effects such as sneezing or cough after dosing. • Degree of nasal stuffiness on a scale of 0 to 5. • Degree of rhinorrhea and phlegm in nasal secretions. • Questions regarding comfort and sleep at night.

TRPA1 = molecular target: T1, TRPA1 (Homo sapiens, UniProt O75762); settings: Karashima et al., 2007; cited from earlier work
T1 construct: expressed in transfected cells
T1 sequence (O75762 whole entry, species assumed): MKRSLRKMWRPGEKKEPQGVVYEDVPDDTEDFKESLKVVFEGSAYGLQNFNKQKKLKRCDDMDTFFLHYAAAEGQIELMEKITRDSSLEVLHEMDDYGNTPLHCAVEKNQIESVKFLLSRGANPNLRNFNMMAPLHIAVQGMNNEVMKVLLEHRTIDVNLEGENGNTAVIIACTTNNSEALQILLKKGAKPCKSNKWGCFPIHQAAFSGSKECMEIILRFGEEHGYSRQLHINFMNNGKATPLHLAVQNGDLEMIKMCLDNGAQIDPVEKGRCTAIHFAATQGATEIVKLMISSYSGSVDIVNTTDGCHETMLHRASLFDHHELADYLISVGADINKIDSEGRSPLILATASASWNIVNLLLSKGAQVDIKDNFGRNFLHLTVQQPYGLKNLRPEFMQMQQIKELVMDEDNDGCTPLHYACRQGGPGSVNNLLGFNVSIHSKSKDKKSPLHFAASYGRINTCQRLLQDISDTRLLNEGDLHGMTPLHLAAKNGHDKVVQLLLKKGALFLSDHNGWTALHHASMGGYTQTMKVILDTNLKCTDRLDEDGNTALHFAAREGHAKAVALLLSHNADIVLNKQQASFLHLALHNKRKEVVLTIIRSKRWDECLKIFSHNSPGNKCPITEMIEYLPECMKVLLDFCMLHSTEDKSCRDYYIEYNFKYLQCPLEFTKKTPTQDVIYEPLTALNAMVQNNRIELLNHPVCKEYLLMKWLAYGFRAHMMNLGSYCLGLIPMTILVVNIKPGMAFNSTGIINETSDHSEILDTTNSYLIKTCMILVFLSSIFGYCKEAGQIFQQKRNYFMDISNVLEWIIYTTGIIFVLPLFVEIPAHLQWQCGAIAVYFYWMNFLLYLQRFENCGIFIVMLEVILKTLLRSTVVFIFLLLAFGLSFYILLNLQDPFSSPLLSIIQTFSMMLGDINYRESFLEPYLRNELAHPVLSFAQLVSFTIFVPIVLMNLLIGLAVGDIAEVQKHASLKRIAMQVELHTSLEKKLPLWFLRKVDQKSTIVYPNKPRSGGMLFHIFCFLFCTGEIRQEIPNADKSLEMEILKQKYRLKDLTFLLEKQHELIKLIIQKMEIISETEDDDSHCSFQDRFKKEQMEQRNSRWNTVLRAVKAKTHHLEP

hTRPM8 channel = molecular target: T2, hTRPM8 channel (Homo sapiens, UniProt Q7Z2W7); assay: TRPM8 receptor assay, calcium entry (Fluo-8, FLIPR) in transfected CHO cells; format: cell-based; settings: FIG. 5
T2 construct: host or cells: CHO cells
T2 sequence (Q7Z2W7 whole entry): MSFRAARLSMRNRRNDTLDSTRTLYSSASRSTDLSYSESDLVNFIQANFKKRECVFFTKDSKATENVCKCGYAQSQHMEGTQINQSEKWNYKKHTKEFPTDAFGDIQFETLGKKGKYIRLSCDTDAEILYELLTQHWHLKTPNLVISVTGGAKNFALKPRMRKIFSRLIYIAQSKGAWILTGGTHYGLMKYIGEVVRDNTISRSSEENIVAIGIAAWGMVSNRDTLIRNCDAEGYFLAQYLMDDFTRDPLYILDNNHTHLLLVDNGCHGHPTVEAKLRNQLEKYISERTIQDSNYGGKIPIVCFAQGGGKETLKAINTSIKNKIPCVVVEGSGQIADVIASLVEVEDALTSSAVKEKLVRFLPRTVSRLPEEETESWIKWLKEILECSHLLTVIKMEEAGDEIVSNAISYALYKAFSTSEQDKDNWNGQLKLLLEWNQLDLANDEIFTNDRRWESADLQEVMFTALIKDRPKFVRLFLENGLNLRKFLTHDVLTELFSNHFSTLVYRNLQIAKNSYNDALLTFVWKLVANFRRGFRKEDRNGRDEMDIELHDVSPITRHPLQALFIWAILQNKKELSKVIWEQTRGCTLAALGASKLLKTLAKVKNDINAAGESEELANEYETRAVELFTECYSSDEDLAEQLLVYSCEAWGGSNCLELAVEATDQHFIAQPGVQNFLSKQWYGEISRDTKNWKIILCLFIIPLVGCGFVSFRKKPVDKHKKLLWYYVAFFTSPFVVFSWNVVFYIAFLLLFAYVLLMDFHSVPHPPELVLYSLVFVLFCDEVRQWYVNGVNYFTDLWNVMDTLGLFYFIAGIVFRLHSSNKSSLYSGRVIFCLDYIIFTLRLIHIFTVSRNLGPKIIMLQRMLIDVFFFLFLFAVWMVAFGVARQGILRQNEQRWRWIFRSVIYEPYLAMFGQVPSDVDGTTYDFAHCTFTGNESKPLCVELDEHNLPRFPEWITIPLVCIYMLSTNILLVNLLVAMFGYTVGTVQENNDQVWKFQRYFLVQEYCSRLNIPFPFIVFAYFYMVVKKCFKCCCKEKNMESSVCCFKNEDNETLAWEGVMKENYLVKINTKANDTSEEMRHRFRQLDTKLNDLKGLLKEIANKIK
Source text: FIG. 4. Agonist activities of TRPM8 analogs. […] The relative fluorescence (RF) unit on the ordinate represents calcium entry into transfected cells. […] The structures of these compounds are in Table 4.
The applicant has synthesized and examined a series of p-menthanecarboxamides conjugated to amino acid esters. […] This class of molecules is called N-alkylcarbonyl-amino acid esters. GlyOiPr is a p-menthanecarboxamide conjugate of glycine isopropyl (iPr) ester. It is similar in structure to WS-5, a cooling agent used as a food additive. WS-5 is the p-menthane-glycine ethyl (Et) ester, or GlyOEt. […] These in vitro effects were measured in CHO cells transfected with the hTRPM8 channel. Receptor activity was quantified using a Fluo-8 calcium kit and a Fluorescence Imaging Plate Reader ([…]™).

## COc1ccc2c(c1)n(CCN)c(=O)n2C(=O)[C@@H]1C[C@H](C)CC[C@H]1C(C)C.Cl [D-2363]
[1]
  Troponin plasma levels: elevated troponin plasma levels

## COc1ccc(NC(=O)[C@@H]2C[C@H](C)CC[C@H]2C(C)C)cc1 [WS-12, (1R,2S,5R)-2-isopropyl-N-(4-methoxyphenyl)-5-methyl-cyclohexanecarboxamide]
[2]
  Octanol/water partition coefficient among the p-menthanecarboxamides: highest
Ostiomeatal complex; WS-12 10 mg/ml in 1% ethanol and 2% polysorbate 80, 5-sec nebulization once before sleep
  Effect on dry mouth symptoms: dry mouth symptoms disappeared after three days of use
Ostiomeatal complex; manual sprayer instead of electronically powered nebulizer
  Effect with manual spraying: does not work well

## CC(C)[C@@H]1CC[C@@H](C)C[C@H]1O [l-menthol, (1R,2S,5R)-2-isopropyl-5-methyl-cyclohexanol [(−)-menthol], reference compound]
[3]
  MUC5AC secretion: stimulates MUC5AC
Nasal cavity
  Cooling duration in the nasal cavity: ~7 min
Nasal cavity; 3 to 5 sec per nostril
  Sensory effects after delivery into the nasal cavity: Strong cool, clear breathing. Eye irritant, causes rhinorrehea
TRPA1
  Potency on TRPA1 compared with TRPM8: interacts with TRPA1 at a greater potency than TRPM8
hTRPM8 channel
  Activity on TRPM8 transfected cells: active
